Data: PubChem BioAssay AID1963827 (Molecular Pharmacology Branch, DTP, NCI, 2024)

Tested on: 994946-033-R-J1-PDC complex spheroid viability
Assay: Anticancer human tumor 994946-033-R-J1-PDC patient-derived melanoma cell line growth inhibition [POLQ]
Settings: for IC50: curve of first compound; for viability, T/C: stronger effect = lower value
Procedure, shortened: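 PDC + HUVEC + MSC complex spheroids; POLQ inhibitors ± partner drugs; top conc. at/near clinical Cmax, else 10 microM (SN-38 1 microM), half-log dilutions; 37 degrees C, 5% CO2.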

[1] = second compound 0.0316 µM, first compound 0.0316 µM
[2] = second compound 0.0316 µM, first compound 0.1 µM
[3] = second compound 0.0316 µM, first compound 0.316 µM
[4] = second compound 0.0316 µM, first compound 1 µM
[5] = second compound 0.0316 µM, first compound 3.16 µM
[6] = second compound 0.0316 µM, first compound 10 µM
[7] = second compound 0.1 µM, first compound 0.0316 µM
[8] = second compound 0.1 µM, first compound 0.1 µM
[9] = second compound 0.1 µM, first compound 0.316 µM
[10] = second compound 0.1 µM, first compound 1 µM
[11] = second compound 0.1 µM, first compound 3.16 µM
[12] = second compound 0.1 µM, first compound 10 µM
[13] = second compound 0.316 µM, first compound 0.0316 µM
[14] = second compound 0.316 µM, first compound 0.1 µM
[15] = second compound 0.316 µM, first compound 0.316 µM
[16] = second compound 0.316 µM, first compound 1 µM
[17] = second compound 0.316 µM, first compound 3.16 µM
[18] = second compound 0.316 µM, first compound 10 µM
[19] = second compound 1 µM, first compound 0.0316 µM
[20] = second compound 1 µM, first compound 0.1 µM
[21] = second compound 1 µM, first compound 0.316 µM
[22] = second compound 1 µM, first compound 1 µM
[23] = second compound 1 µM, first compound 3.16 µM
[24] = second compound 1 µM, first compound 10 µM
[25] = second compound 3.16 µM, first compound 0.0316 µM
[26] = second compound 3.16 µM, first compound 0.1 µM
[27] = second compound 3.16 µM, first compound 0.316 µM
[28] = second compound 3.16 µM, first compound 1 µM
[29] = second compound 3.16 µM, first compound 3.16 µM
[30] = second compound 3.16 µM, first compound 10 µM
[31] = second compound 10 µM, first compound 0.0316 µM
[32] = second compound 10 µM, first compound 0.1 µM
[33] = second compound 10 µM, first compound 0.316 µM
[34] = second compound 10 µM, first compound 1 µM
[35] = second compound 10 µM, first compound 3.16 µM
[36] = second compound 10 µM, first compound 10 µM
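Further: spheroids exposed to drugs for 7 days.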
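Wherever viability, T/C is given: 100% = DMSO vehicle treated spheroids.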

Q: Which results are given for `CCc1cc2c(N3CCc4c(cc(Cn5ccnc5)cc4-c4cn(C)nc4C(F)(F)F)C3=O)cc(C)nc2c(OC)n1` + Cc1cccc(N(C)C(=O)C2C(O)CCN2c2nc(C)cc(C(F)(F)F)c2C#N)c1?
A: IC50 (second compound 0.0316 µM): > 10 µM; IC50 (second compound 0.1 µM): > 10 µM; IC50 (second compound 0.316 µM): > 10 µM; IC50 (second compound 1 µM): 6.22 µM; IC50 (second compound 3.16 µM): > 10 µM; IC50 (second compound 10 µM): > 10 µM; viability, T/C [1]: 74.7%; viability, T/C [2]: 61.9%; viability, T/C [3]: 94.6%; viability, T/C [4]: 79.2%; viability, T/C [5]: 68.4%; viability, T/C [6]: 69.9%; viability, T/C [7]: 73%; viability, T/C [8]: 84.7%; viability, T/C [9]: 90.7%; viability, T/C [10]: 88.8%; viability, T/C [11]: 90.5%; viability, T/C [12]: 77.6%; viability, T/C [13]: 63%; viability, T/C [14]: 78.5%; viability, T/C [15]: 60.2%; viability, T/C [16]: 66.5%; viability, T/C [17]: 61.3%; viability, T/C [18]: 53.1%; viability, T/C [19]: 106%; viability, T/C [20]: 76.1%; viability, T/C [21]: 78.8%; viability, T/C [22]: 81.4%; viability, T/C [23]: 69.6%; viability, T/C [24]: 38%; viability, T/C [25]: 76.5%; viability, T/C [26]: 83.3%; viability, T/C [27]: 60.4%; viability, T/C [28]: 74.3%; viability, T/C [29]: 66.8%; viability, T/C [30]: 67.6%; viability, T/C [31]: 76%; viability, T/C [32]: 73.2%; viability, T/C [33]: 68.1%; viability, T/C [34]: 89.2%; viability, T/C [35]: 73.8%; viability, T/C [36]: 64.1%

Q: How did the IC50 (second compound 0.0316 µM) turn out when `CCc1cc2c(N3CCc4c(cc(Cn5ccnc5)cc4-c4cn(C)nc4C(F)(F)F)C3=O)ccnc2c(OC)n1` + Cc1cccc(N(C)C(=O)C2C(O)CCN2c2nc(C)cc(C(F)(F)F)c2C#N)c1 was run?
A: > 10 µM

Q: And the IC50 (second compound 0.1 µM)?
A: > 10 µM

Q: What about the IC50 (second compound 0.316 µM) of the same compound?
A: > 10 µM

Q: What about the IC50 (second compound 1 µM) of the same compound?
A: > 10 µM

Q: And the IC50 (second compound 3.16 µM)?
A: > 10 µM

Q: And the IC50 (second compound 10 µM)?
A: > 10 µM

Q: What about the viability, T/C [1] of the same compound?
A: 107%

Q: And the viability, T/C [2]?
A: 86.7%

Q: And the viability, T/C [3]?
A: 68.3%

Q: And the viability, T/C [4]?
A: 78.4%

Q: And the viability, T/C [5]?
A: 69.1%

Q: What about the viability, T/C [6] of the same compound?
A: 67.4%

Q: What about the viability, T/C [7] of the same compound?
A: 95.3%

Q: And the viability, T/C [8]?
A: 85.2%

Q: And the viability, T/C [9]?
A: 78.6%

Q: And the viability, T/C [10]?
A: 78.1%

Q: And the viability, T/C [11]?
A: 66.3%

Q: And the viability, T/C [12]?
A: 66.9%

Q: What about the viability, T/C [13] of the same compound?
A: 102%

Q: And the viability, T/C [14]?
A: 94.2%

Q: And the viability, T/C [15]?
A: 86.1%

Q: And the viability, T/C [16]?
A: 93.9%

Q: What about the viability, T/C [17] of the same compound?
A: 63.3%

Q: And the viability, T/C [18]?
A: 61.6%

Q: What about the viability, T/C [19] of the same compound?
A: 77.7%

Q: What about the viability, T/C [20] of the same compound?
A: 78.8%

Q: What about the viability, T/C [21] of the same compound?
A: 93.5%

Q: And the viability, T/C [22]?
A: 80.1%

Q: What about the viability, T/C [23] of the same compound?
A: 84.1%

Q: What about the viability, T/C [24] of the same compound?
A: 55.2%

Q: What about the viability, T/C [25] of the same compound?
A: 92.4%

Q: And the viability, T/C [26]?
A: 76.8%

Q: And the viability, T/C [27]?
A: 65%

Q: And the viability, T/C [28]?
A: 63%

Q: What about the viability, T/C [29] of the same compound?
A: 85.9%

Q: And the viability, T/C [30]?
A: 53.1%

Q: What about the viability, T/C [31] of the same compound?
A: 81.5%

Q: What about the viability, T/C [32] of the same compound?
A: 65.4%

Q: And the viability, T/C [33]?
A: 73.6%

Q: What about the viability, T/C [34] of the same compound?
A: 57.8%

Q: And the viability, T/C [35]?
A: 71.7%

Q: And the viability, T/C [36]?
A: 65.9%

Q: For `Nc1ccn(C2OC(CO)C(O)C2(F)F)c(=O)n1` (stereo unspecified) + Nc1ccc(C#CCN(C(=O)Cc2ncc(C(F)(F)F)cc2C(F)(F)F)c2ccc(F)cc2)nn1, which IC50 (second compound 0.0316 µM) is on record?
A: < 0.0316 µM

Q: And the IC50 (second compound 0.1 µM)?
A: < 0.0316 µM

Q: And the IC50 (second compound 0.316 µM)?
A: < 0.0316 µM

Q: What about the IC50 (second compound 1 µM) of the same compound?
A: < 0.0316 µM

Q: And the IC50 (second compound 3.16 µM)?
A: 0.0355 µM

Q: What about the IC50 (second compound 10 µM) of the same compound?
A: 0.12 µM

Q: And the viability, T/C [1]?
A: 19.8%

Q: What about the viability, T/C [2] of the same compound?
A: 9.8%

Q: What about the viability, T/C [3] of the same compound?
A: 13.9%

Q: What about the viability, T/C [4] of the same compound?
A: 6.8%

Q: And the viability, T/C [5]?
A: 9.12%

Q: What about the viability, T/C [6] of the same compound?
A: 4.73%

Q: What about the viability, T/C [7] of the same compound?
A: 13.4%

Q: What about the viability, T/C [8] of the same compound?
A: 6.85%

Q: What about the viability, T/C [9] of the same compound?
A: 7.22%

Q: What about the viability, T/C [10] of the same compound?
A: 8.61%

Q: What about the viability, T/C [11] of the same compound?
A: 6.71%

Q: What about the viability, T/C [12] of the same compound?
A: 2.46%

Q: And the viability, T/C [13]?
A: 26.9%

Q: And the viability, T/C [14]?
A: 10.2%

Q: What about the viability, T/C [15] of the same compound?
A: 6.41%

Q: What about the viability, T/C [16] of the same compound?
A: 6.86%

Q: What about the viability, T/C [17] of the same compound?
A: 5.84%

Q: What about the viability, T/C [18] of the same compound?
A: 3.65%

Q: What about the viability, T/C [19] of the same compound?
A: 49.5%

Q: And the viability, T/C [20]?
A: 11.8%

Q: And the viability, T/C [21]?
A: 7.84%

Q: What about the viability, T/C [22] of the same compound?
A: 6.62%

Q: What about the viability, T/C [23] of the same compound?
A: 5.64%

Q: And the viability, T/C [24]?
A: 2.7%

Q: What about the viability, T/C [25] of the same compound?
A: 53.2%

Q: And the viability, T/C [26]?
A: 22.4%

Q: What about the viability, T/C [27] of the same compound?
A: 8.85%

Q: And the viability, T/C [28]?
A: 9.68%

Q: What about the viability, T/C [29] of the same compound?
A: 8.92%

Q: And the viability, T/C [30]?
A: 3.34%

Q: And the viability, T/C [31]?
A: 75.5%

Q: And the viability, T/C [32]?
A: 56.2%

Q: What about the viability, T/C [33] of the same compound?
A: 17.5%

Q: And the viability, T/C [34]?
A: 7.83%

Q: And the viability, T/C [35]?
A: 11.2%

Q: What about the viability, T/C [36] of the same compound?
A: 6.31%
